Reference: PubChem BioAssay AID330 (DTP/NCI, 2004)
Where “and” joins values, the source holds several entries; their conditions need not be identical. Equal entries are not always repeated. Toxic doses and inconclusive results are not listed. Rule for the calls: active = survival T/C of 150% or more; inactive = T/C below 125% in these data.

System: P388 leukemia ip, CD2F1 mice, survival T/C
Assay: NCI In Vivo Anticancer Drug Screen. Data for tumor model P388 Leukemia (intraperitoneal) in CD2F1 (CDF1) mice
Conditions: endpoint: median survival time, higher = longer survival
How it was run: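 Mice carrying the transplanted tumor received test compound or vehicle. Survival was recorded in each group, and the value is the treated-group measurement divided by that of the vehicle-treated control group.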

[1] = dose: 100.0 mg/kg/injection, schedule: Q04DX003 (ip), vehicle: saline with Tween-80
[2] = dose: 200.0 mg/kg/injection, schedule: Q04DX003 (ip), vehicle: saline with Tween-80
[3] = dose: 100.0 mg/kg/injection, schedule: Q01DX001 (ip), vehicle: saline with Tween-80
[4] = dose: 200.0 mg/kg/injection, schedule: Q01DX001 (ip), vehicle: saline with Tween-80
[5] = dose: 400.0 mg/kg/injection, schedule: Q01DX001 (ip), vehicle: saline with Tween-80
[6] = dose: 60.0 mg/kg/injection, schedule: Q01DX005 (ip), vehicle: saline with Tween-80
[7] = dose: 240.0 mg/kg/injection, schedule: Q01DX005 (ip), vehicle: saline with Tween-80
[8] = dose: 50.0 mg/kg/injection, schedule: Q01DX009 (ip), vehicle: saline with Tween-80
[9] = dose: 50.0 mg/kg/injection, schedule: Q04DX003 (ip), vehicle: saline with Tween-80
[10] = dose: 100.0 mg/kg/injection, schedule: Q01DX009 (ip), vehicle: saline with Tween-80
[11] = dose: 200.0 mg/kg/injection, schedule: Q01DX009 (ip), vehicle: saline with Tween-80
[12] = dose: 50.0 mg/kg/injection, schedule: Q01DX009 (ip), vehicle: saline
[13] = dose: 100.0 mg/kg/injection, schedule: Q01DX009 (ip), vehicle: saline
[14] = dose: 200.0 mg/kg/injection, schedule: Q01DX009 (ip), vehicle: saline
[15] = dose: 25.0 mg/kg/injection, schedule: Q04DX002 (ip), vehicle: saline with Tween-80
[16] = dose: 50.0 mg/kg/injection, schedule: Q04DX002 (ip), vehicle: saline with Tween-80
[17] = dose: 100.0 mg/kg/injection, schedule: Q04DX002 (ip), vehicle: saline with Tween-80
[18] = dose: 60.0 mg/kg/injection, schedule: Q01DX005 (ip), vehicle: Klucel (hydroxypropylcellulose) (HPC)
[19] = dose: 120.0 mg/kg/injection, schedule: Q01DX005 (ip), vehicle: Klucel (hydroxypropylcellulose) (HPC)
[20] = dose: 240.0 mg/kg/injection, schedule: Q01DX005 (ip), vehicle: Klucel (hydroxypropylcellulose) (HPC)
[21] = dose: 100.0 mg/kg/injection, schedule: Q01DX009 (ip), vehicle: Klucel (hydroxypropylcellulose) (HPC)
[22] = dose: 200.0 mg/kg/injection, schedule: Q01DX009 (ip), vehicle: Klucel (hydroxypropylcellulose) (HPC)
[23] = dose: 50.0 mg/kg/injection, schedule: Q01DX005 (ip), vehicle: saline with Tween-80
[24] = dose: 100.0 mg/kg/injection, schedule: Q01DX005 (ip), vehicle: saline with Tween-80
[25] = dose: 25.0 mg/kg/injection, schedule: Q01DX009 (ip), vehicle: saline with Tween-80
[26] = dose: 50.0 mg/kg/injection, schedule: Q01DX005 (ip), vehicle: Klucel (hydroxypropylcellulose) (HPC)
[27] = dose: 100.0 mg/kg/injection, schedule: Q01DX005 (ip), vehicle: Klucel (hydroxypropylcellulose) (HPC)
[28] = dose: 200.0 mg/kg/injection, schedule: Q01DX005 (ip), vehicle: Klucel (hydroxypropylcellulose) (HPC)
[29] = dose: 50.0 mg/kg/injection, schedule: Q01DX005 (ip), vehicle: saline
[30] = dose: 100.0 mg/kg/injection, schedule: Q01DX005 (ip), vehicle: saline
[31] = dose: 120.0 mg/kg/injection, schedule: Q01DX005 (ip), vehicle: saline with Tween-80

Measured: T/C

ClCC1CCN(Cc2ccccc2)CC1
inactive: [1] 97 % of control | [2] 100 % of control

COC(=O)CCCCCCCCCCCCC1C=CCC1 (stereo not given)
inactive: dose: 100.0 mg/kg/injection, schedule: Q01DX001 (ip), vehicle: saline 100 % of control | dose: 200.0 mg/kg/injection, schedule: Q01DX001 (ip), vehicle: saline 104 % of control | dose: 400.0 mg/kg/injection, schedule: Q01DX001 (ip), vehicle: saline 104 % of control

Cc1nc(N)c(C#N)c(-c2ccccc2)c1-c1ccccc1
inactive: [3] 92 % of control | [4] 90 % of control | [5] 106 % of control

O=C1CN(c2ccccc2)C(=O)C1C(=O)Nc1ccc(Cl)c(Cl)c1 (stereo not given)
inactive: dose: 30.0 mg/kg/injection, schedule: Q01DX005 (ip), vehicle: saline with Tween-80 117 % of control | [6] 121 % of control and 123 % of control | [7] 90 % of control

Nc1nc(N)c(N=Nc2ccccc2)c(=O)[nH]1
inactive: [8] 100 % of control | [9] 86 % of control | [10] 90 % of control | [1] 95 % of control | [11] 115 % of control | [2] 95 % of control

N#CCCOCC(COCCC#N)OCCC#N
inactive: [12] 105 % of control | [13] 92 % of control | [14] 102 % of control

N#CSCc1cc(Cl)c(Cl)cc1Cl
inactive: [15] 106 % of control | [16] 106 % of control | dose: 100.0 mg/kg/injection, schedule: Q04DX002 (ip), vehicle: Klucel (hydroxypropylcellulose) (HPC) 107 % of control | [17] 100 % of control

CC(C)(C)SS(=O)(=O)C(C)(C)C
inactive: [18] 103 % of control | [19] 106 % of control | [20] 105 % of control

CCOC(=O)Cc1cc2cc(=O)[nH]cc2cc1C
inactive: dose: 12.5 mg/kg/injection, schedule: Q01DX009 (ip), vehicle: distilled water + Tween-80 94 % of control | dose: 25.0 mg/kg/injection, schedule: Q01DX009 (ip), vehicle: distilled water + Tween-80 93 % of control | dose: 50.0 mg/kg/injection, schedule: Q01DX009 (ip), vehicle: distilled water + Tween-80 90 % of control | dose: 200.0 mg/kg/injection, schedule: Q01DX009 (ip), vehicle: distilled water + Tween-80 87 % of control

CC12CC3(C)CC(C)(C1)CC(Br)(C2)C3
inactive: dose: 50.0 mg/kg/injection, schedule: Q01DX009 (ip), vehicle: Klucel (hydroxypropylcellulose) (HPC) 100 % of control | [21] 99 % of control | [22] 97 % of control

Nc1nnc(SCCCCCCSc2nnc(N)s2)s1
inactive: [23] 86 % of control | [24] 86 % of control

Clc1nn2nnnc2c2ccccc12
inactive: dose: 5.0 mg/kg/injection, schedule: Q01DX009 (ip), vehicle: saline 100 % of control and 96 % of control | dose: 10.0 mg/kg/injection, schedule: Q01DX009 (ip), vehicle: saline 95 % of control and 97 % of control | dose: 20.0 mg/kg/injection, schedule: Q01DX009 (ip), vehicle: saline 89 % of control and 94 % of control | dose: 40.0 mg/kg/injection, schedule: Q01DX009 (ip), vehicle: saline 100 % of control and 91 % of control

O=[N+]([O-])c1cc([N+](=O)[O-])c2ccccc2c1NS(=O)(=O)c1ccc(Br)cc1
inactive: [25] 103 % of control | [8] 117 % of control

O=c1oc2c(-c3c(O)c(=O)oc4ccccc34)cc(O)cc2s1
inactive: [26] 96 % of control | [27] 103 % of control | [28] 104 % of control

OCC(O)C(O)CO (stereo not given)
inactive: [23] 98 % of control | [24] 104 % of control | dose: 200.0 mg/kg/injection, schedule: Q01DX005 (ip), vehicle: saline with Tween-80 104 % of control

CCC(=O)C(=O)c1ccc(O)c(C)c1O
inactive: [8] 100 % of control | [10] 96 % of control | [11] 90 % of control

CN(/N=C(C#N)/C(N)=N/NC(=O)c1ccccc1)c1ccccc1
inactive: [15] 103 % of control | [16] 96 % of control | [17] 96 % of control

CN(C)c1ccc(N=Nc2ccc([As](=O)(O)O)cc2)cc1
inactive: dose: 0.5 mg/kg/injection, schedule: Q01DX009 (ip), vehicle: saline with Tween-80 100 % of control | dose: 1.0 mg/kg/injection, schedule: Q01DX009 (ip), vehicle: saline with Tween-80 95 % of control

CC1(c2ccc(Cl)cc2)OC(=O)CC(=O)O1
inactive: [26] 99 % of control | [27] 100 % of control | [28] 100 % of control

FC(F)(F)c1ccc(Cl)c(NC(=S)SC2CCCCC2)c1
inactive: [12] 100 % of control | [13] 100 % of control | [14] 97 % of control

CSC(=S)N/N=C/c1ccccc1O
inactive: dose: 6.25 mg/kg/injection, schedule: Q01DX009 (ip), vehicle: saline with Tween-80 90 % of control | dose: 12.5 mg/kg/injection, schedule: Q01DX009 (ip), vehicle: saline with Tween-80 90 % of control | [25] 95 % of control

CCCCCCCCCCC1OCN2CC(CC)CCC12 (stereo not given)
inactive: [29] 100 % of control | [30] 101 % of control | dose: 200.0 mg/kg/injection, schedule: Q01DX005 (ip), vehicle: saline 105 % of control

CCOC(=O)C1(C)C(=O)CC2c3nc4ccccc4cc3CN2C1=O (stereo not given)
inactive: [21] 95 % of control | [22] 95 % of control | dose: 400.0 mg/kg/injection, schedule: Q01DX009 (ip), vehicle: Klucel (hydroxypropylcellulose) (HPC) 104 % of control

CCOc1cc2c(cc1C(C)c1ccc(O)cc1)OCO2 (stereo not given)
inactive: dose: 50.0 mg/kg/injection, schedule: Q01DX005 (ip), vehicle: distilled water + Tween-80 102 % of control | dose: 100.0 mg/kg/injection, schedule: Q01DX005 (ip), vehicle: distilled water + Tween-80 105 % of control | dose: 200.0 mg/kg/injection, schedule: Q01DX005 (ip), vehicle: distilled water + Tween-80 109 % of control

O=C1NC(=O)C2(CCC(O)C2)c2cc[n+]([O-])cc21 (stereo not given)
inactive: dose: 12.5 mg/kg/injection, schedule: Q01DX005 (ip), vehicle: saline 96 % of control | dose: 25.0 mg/kg/injection, schedule: Q01DX005 (ip), vehicle: saline 105 % of control | [29] 105 % of control | [30] 100 % of control

COc1ccc(/C=C2\CCCC3=C2N=C2SCC(=O)N2C3c2ccc(OC)cc2)cc1 (stereo not given)
inactive: dose: 25.0 mg/kg/injection, schedule: Q04DX003 (ip), vehicle: saline with Tween-80 98 % of control | [9] 92 % of control | [1] 90 % of control

Cc1ccc(NC(=O)N(C)C)c(C)c1
inactive: [18] 97 % of control | [19] 97 % of control | [20] 94 % of control

CCCCCCCCCCCCCCCCOCC(COP(=O)([O-])OCC[N+](C)(C)C)OCCCCCCCCCCCCCCCC (stereo not given)
inactive: [6] 97 % of control | [31] 100 % of control | [7] 104 % of control

COc1ccc2c(c1OC)C(=O)N1C2=Cc2c(cc3c(c2OC)OCO3)CC1N(C)C (stereo not given)
inactive: dose: 60.0 mg/kg/injection, schedule: Q01DX005 (ip), vehicle: saline 103 % of control | dose: 120.0 mg/kg/injection, schedule: Q01DX005 (ip), vehicle: saline 100 % of control

O=c1c2ccccc2ncn1-c1ccc(O)c(CN(CCCl)CCCl)c1
inactive: [3] 101 % of control | [4] 97 % of control | [5] 93 % of control

CCOc1ccc(C(C)c2cc3c(cc2O)OCO3)cc1 (stereo not given)
inactive: [6] 105 % of control | [31] 104 % of control | [7] 109 % of control
